Results from ChEMBL document CHEMBL1201862, “PubChem BioAssay data set” (2004).
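Interpolation was linear, between the two tested concentrations surrounding the appropriate level; five concentrations were tested over 48 hours in 96-well plates. At the GI50, growth is halved.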 Activity calls are given as the source filed them. Rule as the data show it: active = GI50 up to about 1.1 µM and inactive = higher.

Assays:
Test in all cases: inhibition of tumour cell growth, NCI panel, 48 h
OVCAR-4 = tested on: OVCAR-4
SNB-75 = tested on: SNB-75
KM12 = tested on: KM12
MOLT-4 = tested on: MOLT-4
OVCAR-3 = tested on: OVCAR-3
T47D = tested on: T47D
NCI-H23 = tested on: NCI-H23
MDA-MB-231 = tested on: MDA-MB-231
OVCAR-8 = tested on: OVCAR-8
SNB-19 = tested on: SNB-19
UACC-62 = tested on: UACC-62
UACC-257 = tested on: UACC-257
SF-268 = tested on: SF-268
NCI-H522 = tested on: NCI-H522
MDA-N = tested on: MDA-N
CAKI-1 = tested on: CAKI-1
UO-31 = tested on: UO-31
IGROV-1 = tested on: IGROV-1
PC-3 = tested on: PC-3
K562 = tested on: K562
A549 = tested on: A549
ACHN = tested on: ACHN
HL-60 = tested on: HL-60
NCI-H226 = tested on: NCI-H226
Hs-578T = tested on: Hs-578T
MCF7 = tested on: MCF7
RXF 393 = tested on: RXF 393
SN12C = tested on: SN12C
RPMI-8226 = tested on: RPMI-8226
786-0 = tested on: 786-0
U-251 = tested on: U-251
NCI-H460 = tested on: NCI-H460
COLO 205 = tested on: COLO 205
HCC 2998 = tested on: HCC 2998
HCT-15 = tested on: HCT-15
HCT-116 = tested on: HCT-116
NCI/ADR-RES = tested on: NCI/ADR-RES
SK-MEL-28 = tested on: SK-MEL-28
A498 = tested on: A498
SW-620 = tested on: SW-620
SR = tested on: SR
DU-145 = tested on: DU-145
SF-295 = tested on: SF-295
MDA-MB-435 = tested on: MDA-MB-435
Malme-3M = tested on: Malme-3M
HOP-92 = tested on: HOP-92
LOX IMVI = tested on: LOX IMVI
OVCAR-5 = tested on: OVCAR-5
BT-549 = tested on: BT-549
M14 = tested on: M14
SK-OV-3 = tested on: SK-OV-3
EKVX = tested on: EKVX
HT-29 = tested on: HT-29
SK-MEL-5 = tested on: SK-MEL-5
SF-539 = tested on: SF-539
SK-MEL-2 = tested on: SK-MEL-2
HOP-62 = tested on: HOP-62
TK-10 = tested on: TK-10
CCRF-CEM = tested on: CCRF-CEM

Measured: GI50

CCOC(=O)C1=C(N)N2C(=N[C@H]3CCCC[C@@H]32)N=C1
inactive: OVCAR-4 37 µM | SNB-75 38.3 µM | KM12 > 100 µM | MOLT-4 > 100 µM | OVCAR-3 > 100 µM | T47D > 100 µM | NCI-H23 > 100 µM | MDA-MB-231 > 100 µM | OVCAR-8 > 100 µM | SNB-19 > 100 µM | UACC-62 > 100 µM | UACC-257 > 100 µM | SF-268 > 100 µM | NCI-H522 > 100 µM | MDA-N > 100 µM | CAKI-1 > 100 µM | UO-31 > 100 µM | IGROV-1 > 100 µM | PC-3 > 100 µM | K562 > 100 µM | A549 > 100 µM | ACHN > 100 µM | HL-60 > 100 µM | NCI-H226 73.6 µM | Hs-578T > 100 µM | MCF7 > 100 µM | RXF 393 > 100 µM | SN12C > 100 µM | RPMI-8226 > 100 µM | 786-0 > 100 µM | U-251 > 100 µM | NCI-H460 > 100 µM | COLO 205 > 100 µM | HCC 2998 > 100 µM | HCT-116 > 100 µM | NCI/ADR-RES > 100 µM | SK-MEL-28 > 100 µM | A498 > 100 µM | SW-620 > 100 µM | SR > 100 µM | DU-145 > 100 µM | SF-295 > 100 µM | MDA-MB-435 > 100 µM | Malme-3M > 100 µM | HOP-92 > 100 µM | LOX IMVI > 100 µM | OVCAR-5 > 100 µM | BT-549 > 100 µM | M14 > 100 µM | SK-OV-3 > 100 µM | EKVX > 100 µM | HT-29 > 100 µM | SK-MEL-5 > 100 µM | SF-539 > 100 µM | SK-MEL-2 > 100 µM
> 100 µM: HCT-15

CSc1ncc2c(C#N)c3[nH]c4ccccc4n3c(=O)c2n1
inactive: OVCAR-4 6.84 µM | SNB-75 44.7 µM | KM12 8.63 µM | MOLT-4 4.28 µM | OVCAR-3 6.7 µM | T47D 22.9 µM | NCI-H23 14.8 µM | MDA-MB-231 26.6 µM | OVCAR-8 7.85 µM | SNB-19 16.9 µM | UACC-62 4.61 µM | UACC-257 30.7 µM | SF-268 28 µM | NCI-H522 7.52 µM | HOP-62 19.8 µM | MDA-N 24.3 µM | CAKI-1 22.8 µM | UO-31 8.13 µM | IGROV-1 18.1 µM | PC-3 5.83 µM | K562 5.18 µM | ACHN 33.1 µM | HL-60 7.29 µM | NCI-H226 34.1 µM | Hs-578T 30.6 µM | MCF7 19.7 µM | RXF 393 7.53 µM | SN12C 16 µM | RPMI-8226 1.88 µM | 786-0 31.7 µM | U-251 15.8 µM | NCI-H460 13.3 µM | COLO 205 17 µM | HCC 2998 10.9 µM | HCT-116 13.1 µM | NCI/ADR-RES 4.89 µM | A498 9.84 µM | SW-620 23.6 µM | SR 9.89 µM | DU-145 28.8 µM | SF-295 9.84 µM | MDA-MB-435 16.9 µM | HOP-92 4.2 µM | LOX IMVI 21.7 µM | OVCAR-5 55.1 µM | BT-549 20.6 µM | M14 16.7 µM | TK-10 31.5 µM | SK-OV-3 29.4 µM | EKVX 33.9 µM | SK-MEL-5 10.6 µM | SF-539 17.3 µM | SK-MEL-2 8.49 µM | CCRF-CEM 4.92 µM
9.71 µM: HCT-15

CN(C)CCOc1ccc2[nH]c(C(=O)N3CC(CCl)c4ccc(N)cc43)cc2c1 (centres undefined)
0.102 µM: HCT-15
inactive: MDA-MB-231 1.39 µM | SK-OV-3 1.94 µM
active: OVCAR-4 0.0703 µM | SNB-75 0.112 µM | KM12 0.0733 µM | MOLT-4 < 0.01 µM | OVCAR-3 0.0631 µM | T47D 0.0424 µM | NCI-H23 0.0562 µM | OVCAR-8 0.0912 µM | SNB-19 0.258 µM | UACC-62 0.0753 µM | UACC-257 0.151 µM | SF-268 0.0375 µM | NCI-H522 0.0154 µM | HOP-62 0.0356 µM | MDA-N 0.143 µM | CAKI-1 0.0489 µM | UO-31 0.065 µM | IGROV-1 0.0395 µM | PC-3 0.0459 µM | K562 0.0533 µM | A549 0.0667 µM | ACHN 0.0281 µM | NCI-H226 0.0776 µM | Hs-578T 0.176 µM | MCF7 0.0266 µM | RXF 393 0.0182 µM | SN12C 0.108 µM | RPMI-8226 0.228 µM | 786-0 0.0687 µM | U-251 0.0912 µM | NCI-H460 0.0273 µM | COLO 205 0.083 µM | HCC 2998 0.0535 µM | HCT-116 0.0354 µM | NCI/ADR-RES 0.0933 µM | SK-MEL-28 0.126 µM | A498 0.208 µM | SW-620 0.121 µM | SR < 0.0179 µM | DU-145 0.0323 µM | SF-295 0.0885 µM | MDA-MB-435 0.0871 µM | Malme-3M 0.164 µM | HOP-92 0.36 µM | LOX IMVI 0.0601 µM | OVCAR-5 0.141 µM | BT-549 0.192 µM | M14 0.145 µM | TK-10 0.29 µM | EKVX 0.231 µM | HT-29 < 0.0358 µM | SK-MEL-5 0.0451 µM | SF-539 0.385 µM | SK-MEL-2 0.0653 µM | CCRF-CEM 0.0381 µM
